Reference: patent US6737383B1, “Herbicidal oxadiazolidines” (priority 1999, dated 2004)

How the values were obtained:
blackgrass = assay: Test B pre/postemergence blackgrass; format: in vivo, Alopecurus myosuroides
How it was run: (§1)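 Test chemicals in a non-phytotoxic solvent mixture with surfactant were sprayed preemergence onto planted seeds and postemergence onto plants 2 to 18 cm tall (1- to 4-leaf stage). After twelve to sixteen days in a greenhouse, injury was visually rated against untreated controls from 0 (no effect) to 10 (complete control).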

cocklebur = assay: Test B pre/postemergence cocklebur; format: in vivo, Xanthium strumarium
How it was run: as §1

giant foxtail = assay: Test B pre/postemergence giant foxtail; format: in vivo, Setaria faberii
How it was run: as §1

morningglory = assay: Test B pre/postemergence morningglory; format: in vivo, Ipomoea hederacea
How it was run: as §1

pigweed = assay: Test B pre/postemergence pigweed; format: in vivo, Amaranthus retroflexus
How it was run: as §1

rape = assay: Test B pre/postemergence rape; format: in vivo, Brassica napus
How it was run: as §1

soybean = assay: Test B pre/postemergence soybean; format: in vivo, Glycine max
How it was run: as §1

sugar beet = assay: Test B pre/postemergence sugar beet; format: in vivo, Beta vulgaris
How it was run: as §1

velvetleaf = assay: Test B pre/postemergence velvetleaf; format: in vivo, Abutilon theophrasti
How it was run: as §1

wheat = assay: Test B pre/postemergence wheat; format: in vivo, Triticum aestivum
How it was run: as §1

wild oat = assay: Test B pre/postemergence wild oat; format: in vivo, Avena fatua
How it was run: as §1

purple nutsedge = assay: Test B pre/postemergence purple nutsedge; format: in vivo, Cyperus rotundus
How it was run: as §1

rice = assay: Test B flood test rice; format: in vivo, Oryza sativa
How it was run: (§2)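 Each value is a visual injury score relative to controls, with 10 meaning complete control and 0 no effect. Evaluation took place twelve to sixteen days after the 2-leaf-stage plants were treated and kept in the greenhouse.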

smallflower flatsedge = assay: Test B flood test smallflower flatsedge; format: in vivo, Cyperus difformis
How it was run: as §2

duck salad = assay: Test B flood test duck salad; format: in vivo, Heteranthera limosa
How it was run: as §2

bamyardgrass = assay: Test B flood test barnyardgrass; format: in vivo, Echinochloa crus-galli
How it was run: as §2

[1] = Postemergence, Rate 62 g/ha, scale 0 to 10, 0 is no effect, 10 is complete control
[2] = Postemergence, Rate 250 g/ha, scale 0 to 10, 0 no effect, 10 complete control
[3] = Preemergence, Rate 62 g/ha, scale 0 to 10 (0 no effect, 10 complete control)
[4] = Preemergence, Rate 125 g/ha, scale 0 to 10 (0 no effect, 10 complete control)
[5] = Preemergence, Rate 250 g/ha, scale of 0 to 10 where 0 is no effect and 10 is complete control
[6] = Preemergence, Rate 500 g/ha, scale 0 (no effect) to 10 (complete control)
[7] = Rate 125 g/ha, Postemergence, scale 0 to 10, 0 no effect, 10 complete control
[8] = Rate 500 g/ha, Postemergence, scale 0 to 10, 0 no effect, 10 complete control
[9] = Rate 125 g/ha, Postemergence section (flood test species), scale 0 to 10, 0 no effect, 10 complete control
[10] = Rate 500 g/ha, listed under Postemergence (flood test species), scale 0 to 10, 0 no effect, 10 complete control
[11] = flood test, listed under Postemergence, Rate 250 g/ha, scale 0 to 10, 0 no effect, 10 complete control

Cc1nn(C)c(C)c1-n1c(=O)on(C(=O)N(c2ccc(F)cc2F)C(C)C)c1=O [Compound 76]
Blackgrass plant response rating (blackgrass; [1]): 0
Blackgrass plant response rating (blackgrass; [2]): 6
Blackgrass plant response rating (blackgrass; [3]): 0
Plant response rating, Blackgrass (blackgrass; [4]): 2
Plant response rating, Blackgrass (blackgrass; [5]): 4
Blackgrass plant response rating (blackgrass; [6]): 8
Blackgrass plant response rating (blackgrass; [7]): 2
Blackgrass plant response rating (blackgrass; [8]): 8
Cocklebur plant response rating (cocklebur; [1]): 0
Cocklebur plant response rating (cocklebur; [2]): 3
Cocklebur plant response rating (cocklebur; [3]): 0
Plant response rating, Cocklebur (cocklebur; [4]): 0
Plant response rating, Cocklebur (cocklebur; [5]): 0
Cocklebur plant response rating (cocklebur; [6]): 0
Cocklebur plant response rating (cocklebur; [7]): 0
Cocklebur plant response rating (cocklebur; [8]): 4
Giant foxtail plant response rating (giant foxtail; [1]): 3
Giant foxtail plant response rating (giant foxtail; [2]): 7
Giant foxtail plant response rating (giant foxtail; [3]): 4
Plant response rating, Giant foxtail (giant foxtail; [4]): 9
Plant response rating, Giant foxtail (giant foxtail; [5]): 9
Giant foxtail plant response rating (giant foxtail; [6]): 9
Giant foxtail plant response rating (giant foxtail; [7]): 4
Giant foxtail plant response rating (giant foxtail; [8]): 9
Morningglory plant response rating (morningglory; [1]): 0
Morningglory plant response rating (morningglory; [2]): 4
Morningglory plant response rating (morningglory; [3]): 0
Plant response rating, Morningglory (morningglory; [4]): 0
Plant response rating, Morningglory (morningglory; [5]): 0
Morningglory plant response rating (morningglory; [6]): 0
Morningglory plant response rating (morningglory; [7]): 2
Morningglory plant response rating (morningglory; [8]): 7
Redroot pigweed plant response rating (pigweed; [1]): 0
Redroot pigweed plant response rating (pigweed; [2]): 0
Redroot pigweed plant response rating (pigweed; [3]): 0
Plant response rating, Redroot pigweed (pigweed; [4]): 0
Plant response rating, Redroot pigweed (pigweed; [5]): 3
Redroot pigweed plant response rating (pigweed; [6]): 8
Redroot pigweed plant response rating (pigweed; [7]): 0
Redroot pigweed plant response rating (pigweed; [8]): 4
Rape plant response rating (rape; [1]): 0
Rape plant response rating (rape; [2]): 0
Rape plant response rating (rape; [3]): 0
Plant response rating, Rape (rape; [4]): 0
Plant response rating, Rape (rape; [5]): 0
Rape plant response rating (rape; [6]): 0
Rape plant response rating (rape; [7]): 0
Rape plant response rating (rape; [8]): 2
Soybean plant response rating (soybean; [1]): 0
Soybean plant response rating (soybean; [2]): 2
Soybean plant response rating (soybean; [3]): 0
Plant response rating, Soybean (soybean; [4]): 0
Plant response rating, Soybean (soybean; [5]): 0
Soybean plant response rating (soybean; [6]): 0
Soybean plant response rating (soybean; [7]): 1
Soybean plant response rating (soybean; [8]): 2
Sugarbeets plant response rating (sugar beet; [1]): 0
Sugarbeets plant response rating (sugar beet; [2]): 2
Sugarbeets plant response rating (sugar beet; [3]): 0
Plant response rating, Sugarbeets (sugar beet; [4]): 0
Plant response rating, Sugarbeets (sugar beet; [5]): 0
Sugarbeets plant response rating (sugar beet; [6]): 0
Sugarbeets plant response rating (sugar beet; [7]): 0
Sugarbeets plant response rating (sugar beet; [8]): 3
Velvetleaf plant response rating (velvetleaf; [1]): 0
Velvetleaf plant response rating (velvetleaf; [2]): 3
Velvetleaf plant response rating (velvetleaf; [3]): 0
Plant response rating, Velvetleaf (velvetleaf; [4]): 0
Plant response rating, Velvetleaf (velvetleaf; [5]): 0
Velvetleaf plant response rating (velvetleaf; [6]): 0
Velvetleaf plant response rating (velvetleaf; [7]): 0
Velvetleaf plant response rating (velvetleaf; [8]): 4
Wheat plant response rating (wheat; [1]): 0
Wheat plant response rating (wheat; [2]): 0
Wheat plant response rating (wheat; [3]): 0
Plant response rating, Wheat (wheat; [4]): 0
Plant response rating, Wheat (wheat; [5]): 0
Wheat plant response rating (wheat; [6]): 2
Wheat plant response rating (wheat; [7]): 0
Wheat plant response rating (wheat; [8]): 3
Wild oats plant response rating (wild oat; [1]): 0
Wild oats plant response rating (wild oat; [2]): 2
Wild oats plant response rating (wild oat; [3]): 0
Plant response rating, Wild oats (wild oat; [4]): 0
Plant response rating, Wild oats (wild oat; [5]): 4
Wild oats plant response rating (wild oat; [6]): 4
Wild oats plant response rating (wild oat; [7]): 0
Wild oats plant response rating (wild oat; [8]): 5
Nutsedge plant response rating (purple nutsedge; [1]): 0
Nutsedge plant response rating (purple nutsedge; [2]): 0
Nutsedge plant response rating (purple nutsedge; [3]): 0
Plant response rating, Nutsedge (purple nutsedge; [4]): 0
Plant response rating, Nutsedge (purple nutsedge; [5]): 0
Nutsedge plant response rating (purple nutsedge; [6]): 0
Nutsedge plant response rating (purple nutsedge; [7]): 0
Nutsedge plant response rating (purple nutsedge; [8]): 0
Rice plant response rating (rice; [1]): 0
Rice plant response rating (rice; [9]): 0
Rice plant response rating (rice; [10]): 3
Rice plant response rating (rice; [11]): 3
S. Flatsedge plant response rating (smallflower flatsedge; [1]): 0
S. Flatsedge plant response rating (smallflower flatsedge; [9]): 0
S. Flatsedge plant response rating (smallflower flatsedge; [10]): 0
S. Flatsedge plant response rating (smallflower flatsedge; [11]): 0
Ducksalad plant response rating (duck salad; [1]): 0
Ducksalad plant response rating (duck salad; [9]): 0
Ducksalad plant response rating (duck salad; [10]): 0
Ducksalad plant response rating (duck salad; [11]): 0
Barnyardgrass plant response rating (bamyardgrass; [1]): 0
Barnyardgrass plant response rating (bamyardgrass; [9]): 0
Barnyardgrass plant response rating (bamyardgrass; [10]): 0
Barnyardgrass plant response rating (bamyardgrass; [11]): 0
